# According to ChEMBL document CHEMBL1201862, “PubChem BioAssay data set” (2004):
#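 How tested: cells in 96-well plates exposed to compound for 48 hours at five concentrations. At the GI50, growth is halved.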 The source made the active and inactive calls. Cut-off read from the data, not from the text of the source: active = GI50 up to about 1.1 µM and inactive = higher.
# Legend:
# Assay in all cases: growth of human tumour cells (NCI), 48 h
# U-251 = test system: U-251
# A498 = test system: A498
# OVCAR-5 = test system: OVCAR-5
# CCRF-CEM = test system: CCRF-CEM
# RXF 393 = test system: RXF 393
# UACC-257 = test system: UACC-257
# XF498 = test system: XF498
# NCI-H460 = test system: NCI-H460
# LOX IMVI = test system: LOX IMVI
# Malme-3M = test system: Malme-3M
# HOP-18 = test system: HOP-18
# DLD-1 = test system: DLD-1
# M14 = test system: M14
# MOLT-4 = test system: MOLT-4
# NCI-H23 = test system: NCI-H23
# M19-MEL = test system: M19-MEL
# SR = test system: SR
# UO-31 = test system: UO-31
# HOP-92 = test system: HOP-92
# 786-0 = test system: 786-0
# SK-MEL-2 = test system: SK-MEL-2
# TK-10 = test system: TK-10
# OVCAR-4 = test system: OVCAR-4
# CAKI-1 = test system: CAKI-1
# UACC-62 = test system: UACC-62
# SNB-75 = test system: SNB-75
# HL-60 = test system: HL-60
# SK-MEL-28 = test system: SK-MEL-28
# NCI-H522 = test system: NCI-H522
# ACHN = test system: ACHN
# IGROV-1 = test system: IGROV-1
# KM12 = test system: KM12
# A549 = test system: A549
# COLO 205 = test system: COLO 205
# HOP-62 = test system: HOP-62
# SF-268 = test system: SF-268
# SF-295 = test system: SF-295
# SN12C = test system: SN12C
# SK-MEL-5 = test system: SK-MEL-5
# DMS-114 = test system: DMS-114
# EKVX = test system: EKVX
# RPMI-8226 = test system: RPMI-8226
# HT-29 = test system: HT-29
# SF-539 = test system: SF-539
# SW-620 = test system: SW-620
# HCT-15 = test system: HCT-15
# DMS-273 = test system: DMS-273
# OVCAR-3 = test system: OVCAR-3
# HCT-116 = test system: HCT-116
# RXF 631 = test system: RXF 631
# LXFL 529 = test system: LXFL 529
# NCI-H226 = test system: NCI-H226
# K562 = test system: K562
# SNB-78 = test system: SNB-78
# SK-OV-3 = test system: SK-OV-3
# KM-20L2 = test system: KM-20L2
# OVCAR-8 = test system: OVCAR-8
# SNB-19 = test system: SNB-19
# HCC 2998 = test system: HCC 2998
structure (smiles),measurement,setting,value
c1ccc2c(CNCCCCCCNCc3cccc4ccccc34)cccc2c1,GI50,U-251,10.7 µM (inactive)
same,GI50,A498,18.7 µM (inactive)
same,GI50,OVCAR-5,15.9 µM (inactive)
same,GI50,CCRF-CEM,3.06 µM (inactive)
same,GI50,RXF 393,2.19 µM (inactive)
same,GI50,UACC-257,1.74 µM (inactive)
same,GI50,XF498,2.42 µM (inactive)
same,GI50,NCI-H460,1.81 µM (inactive)
same,GI50,LOX IMVI,1.87 µM (inactive)
same,GI50,Malme-3M,1.95 µM (inactive)
same,GI50,HOP-18,15.5 µM (inactive)
same,GI50,DLD-1,3.78 µM (inactive)
same,GI50,M14,1.79 µM (inactive)
same,GI50,MOLT-4,3.04 µM (inactive)
same,GI50,NCI-H23,16.4 µM (inactive)
same,GI50,M19-MEL,4.2 µM (inactive)
same,GI50,SR,2.14 µM (inactive)
same,GI50,UO-31,11.3 µM (inactive)
same,GI50,HOP-92,6.14 µM (inactive)
same,GI50,786-0,13 µM (inactive)
same,GI50,SK-MEL-2,1.65 µM (inactive)
same,GI50,TK-10,12.6 µM (inactive)
same,GI50,OVCAR-4,14.7 µM (inactive)
same,GI50,CAKI-1,7.38 µM (inactive)
same,GI50,UACC-62,9.73 µM (inactive)
same,GI50,SNB-75,2.31 µM (inactive)
same,GI50,HL-60,1.46 µM (inactive)
same,GI50,SK-MEL-28,1.85 µM (inactive)
same,GI50,NCI-H522,2.32 µM (inactive)
same,GI50,ACHN,15.6 µM (inactive)
same,GI50,IGROV-1,16.2 µM (inactive)
same,GI50,KM12,3.66 µM (inactive)
same,GI50,A549,17.8 µM (inactive)
same,GI50,COLO 205,1.66 µM (inactive)
same,GI50,HOP-62,16.1 µM (inactive)
same,GI50,SF-268,11.9 µM (inactive)
same,GI50,SF-295,12.2 µM (inactive)
same,GI50,SN12C,12.4 µM (inactive)
same,GI50,SK-MEL-5,7.24 µM (inactive)
same,GI50,DMS-114,7.45 µM (inactive)
same,GI50,EKVX,13.2 µM (inactive)
same,GI50,RPMI-8226,2.27 µM (inactive)
same,GI50,HT-29,2.23 µM (inactive)
same,GI50,SF-539,1.82 µM (inactive)
same,GI50,SW-620,4.06 µM (inactive)
same,GI50,HCT-15,6.75 µM
same,GI50,DMS-273,13.6 µM (inactive)
same,GI50,OVCAR-3,16.4 µM (inactive)
same,GI50,HCT-116,1.99 µM (inactive)
same,GI50,RXF 631,3.74 µM (inactive)
same,GI50,LXFL 529,1.91 µM (inactive)
same,GI50,NCI-H226,17.4 µM (inactive)
same,GI50,K562,1.56 µM (inactive)
same,GI50,SNB-78,9.44 µM (inactive)
same,GI50,SK-OV-3,17.5 µM (inactive)
same,GI50,KM-20L2,2.61 µM (inactive)
same,GI50,OVCAR-8,14.5 µM (inactive)
C=CCCCN1CCCC(C)C1=S (configuration not stated),GI50,U-251,> 100 µM (inactive)
same,GI50,A498,> 100 µM (inactive)
same,GI50,OVCAR-5,> 100 µM (inactive)
same,GI50,CCRF-CEM,> 100 µM (inactive)
same,GI50,RXF 393,> 100 µM (inactive)
same,GI50,UACC-257,> 100 µM (inactive)
same,GI50,XF498,> 100 µM (inactive)
same,GI50,NCI-H460,> 100 µM (inactive)
same,GI50,LOX IMVI,> 100 µM (inactive)
same,GI50,Malme-3M,> 100 µM (inactive)
same,GI50,HOP-18,> 100 µM (inactive)
same,GI50,DLD-1,> 100 µM (inactive)
same,GI50,M14,> 100 µM (inactive)
same,GI50,MOLT-4,> 100 µM (inactive)
same,GI50,SNB-19,> 100 µM (inactive)
same,GI50,NCI-H23,> 100 µM (inactive)
same,GI50,M19-MEL,> 100 µM (inactive)
same,GI50,SR,> 100 µM (inactive)
same,GI50,UO-31,> 100 µM (inactive)
same,GI50,HOP-92,> 100 µM (inactive)
same,GI50,786-0,> 100 µM (inactive)
same,GI50,SK-MEL-2,> 100 µM (inactive)
same,GI50,TK-10,> 100 µM (inactive)
same,GI50,OVCAR-4,> 100 µM (inactive)
same,GI50,UACC-62,> 100 µM (inactive)
same,GI50,SNB-75,52 µM (inactive)
same,GI50,HL-60,> 100 µM (inactive)
same,GI50,SK-MEL-28,> 100 µM (inactive)
same,GI50,NCI-H522,> 100 µM (inactive)
same,GI50,ACHN,> 100 µM (inactive)
same,GI50,IGROV-1,> 100 µM (inactive)
same,GI50,KM12,> 100 µM (inactive)
same,GI50,A549,> 100 µM (inactive)
same,GI50,COLO 205,> 100 µM (inactive)
same,GI50,HOP-62,> 100 µM (inactive)
same,GI50,SF-268,> 100 µM (inactive)
same,GI50,SF-295,> 100 µM (inactive)
same,GI50,SK-MEL-5,> 100 µM (inactive)
same,GI50,DMS-114,> 100 µM (inactive)
same,GI50,EKVX,> 100 µM (inactive)
same,GI50,RPMI-8226,> 100 µM (inactive)
same,GI50,HT-29,> 100 µM (inactive)
same,GI50,SF-539,> 100 µM (inactive)
same,GI50,SW-620,> 100 µM (inactive)
same,GI50,HCT-15,> 100 µM
same,GI50,HCC 2998,> 100 µM (inactive)
same,GI50,DMS-273,> 100 µM (inactive)
same,GI50,OVCAR-3,> 100 µM (inactive)
same,GI50,HCT-116,> 100 µM (inactive)
same,GI50,RXF 631,> 100 µM (inactive)
same,GI50,NCI-H226,> 100 µM (inactive)
same,GI50,K562,> 100 µM (inactive)
same,GI50,SK-OV-3,> 100 µM (inactive)
same,GI50,KM-20L2,> 100 µM (inactive)
same,GI50,OVCAR-8,> 100 µM (inactive)
